Test results published in US12410163B2, “Compounds as GLP-IR agonists” (Terns Pharmaceuticals, Inc., priority 2022, dated 2025).

What was measured:
[1] = target: T1, human GLP-1R receptor (Homo sapiens, UniProt P43220); test: GLP-1R low expression cell assay (cAMP TR-FRET, CHO-K1_hGLP-1Rlow_clone10); type: cell-based; conditions: CHO-K1_hGLP-1Rlow_clone10 cells, percent activation relative to control GLP-1 peptide
T1 construct: expressed in transfected cells
Procedure, shortened: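 CHO-K1 cells stably expressing low surface levels of human GLP-1R were exposed to 10-point, 3-fold compound dilutions for 30 min at 25 °C, then cAMP was read by TR-FRET (Eu-cAMP/ULight-anti-cAMP, 15 min). EC50 came from Hill fits of percent activation relative to a GLP-1 control agonist, duplicate wells.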

[2] = Rat pharmacokinetics; type: in vivo; parameters: AUC: concentration or dose not given beside the values; conditions: male Sprague-Dawley rats, plasma, route not given; for half-life: read-out: Rat T1/2 (converted)
Protocol: Intravenous dosing: Compounds were formulated at 0.5 mg/mL in a solution comprising 5% polyethylene glycol 400 and 95% (12% (w/v) sulfobutyl-β-cyclodextrin in water) (v/v). Formulated compounds were sterile filtered through a 0.22 micron filter before dosing. Compounds were administered to male, 7-11-week-old Sprague-Dawley rats by jugular vein cannula infusion over 30 minutes at a dose of 1 mg/kg. […]
Sample collection: Blood collections of about 0.2 mL per time point were performed from jugular vein or other suitable site of each animal, into pre-chilled commercial EDTA-K2 tubes and placed on wet ice until centrifugation. Blood samples were processed for plasma by centrifugation at approximately 4° C., 3,200 g for 10 min. Plasma was collected and transferred into pre-labeled 96 well plate or polypropylene tubes, quick frozen over dry ice and kept at −60° C. or lower until LC-MS/MS analysis.
Data analysis: Plasma concentration versus time data was plotted in graph and analyzed by non-compartmental approaches using the Phoenix WinNonlin 6.3 software program. Related PK parameters were calculated according to dosing route, e.g., CL, Vdss and C0 for intravenous administration, Cmax, Tmax or % F for extravascular administration, and T1/2, AUC(0-t), AUC(0-inf), MRT(0-t), MRT(0-inf) for all routes.

T1 sequence (P43220 24-463): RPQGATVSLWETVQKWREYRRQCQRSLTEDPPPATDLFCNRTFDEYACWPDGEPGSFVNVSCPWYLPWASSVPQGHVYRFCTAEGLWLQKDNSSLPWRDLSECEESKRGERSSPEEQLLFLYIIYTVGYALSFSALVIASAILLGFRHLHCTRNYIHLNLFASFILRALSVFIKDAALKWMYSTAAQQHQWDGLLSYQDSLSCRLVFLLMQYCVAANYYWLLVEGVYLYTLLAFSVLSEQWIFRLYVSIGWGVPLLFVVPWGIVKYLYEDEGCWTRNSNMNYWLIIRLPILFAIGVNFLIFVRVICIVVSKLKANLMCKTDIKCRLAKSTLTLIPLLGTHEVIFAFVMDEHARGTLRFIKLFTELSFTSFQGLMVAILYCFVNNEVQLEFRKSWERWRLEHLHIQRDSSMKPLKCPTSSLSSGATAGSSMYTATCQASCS

SMILES | EC50 [1] [nM] | AUC [2] [ng·h/mL] | half-life [2] [h]
N#Cc1ccc(COc2cccc(N3CCN(Cc4nc5ccc(C(=O)O)cc5n4Cc4cncs4)[C@@H]4C[C@@H]43)n2)c(F)c1 (single isomer, unassigned) [Compound 1, 2-((5-(6-((4-cyano-2-fluorobenzyl)oxy)pyridin-2-yl)-2,5-diazabicyclo[4.1.0]heptan-2-yl)methyl)-1-(thiazol-5-ylmethyl)-1H-benzo[d]imidazole-6-carboxylic Acid] | < 5 | 71.8 ± 90.3 | 4.58
N#Cc1ccc(COc2cccc(N3CCN(Cc4nc5ccc(C(=O)O)cc5n4Cc4cncs4)[C@H]4C[C@H]43)n2)c(F)c1 (single isomer, unassigned) [Compound 2, 2-((5-(6-((4-Cyano-2-fluorobenzyl)oxy)pyridin-2-yl)-2,5-diazabicyclo[4.1.0]heptan-2-yl)methyl)-1-(thiazol-5-ylmethyl)-1H-benzo[d]imidazole-6-carboxylic Acid] | 50 to 100 | 63.5 ± 11.1 | 2.41
N#Cc1ccc(COc2cccc([C@H]3CCN(Cc4nc5ccc(C(=O)O)cc5n4Cc4cncs4)[C@@H]4C[C@H]34)n2)c(F)c1 (single isomer, unassigned) [Compound 4, 2-((5-(6-((4-Cyano-2-fluorobenzyl)oxy)pyridin-2-yl)-2-azabicyclo[4.1.0]heptan-2-yl)methyl)-1-(thiazol-5-ylmethyl)-1H-benzo[d]imidazole-6-carboxylic Acid] | < 5 | 86.3 ± 27.2 | 0.92
N#Cc1ccc(COc2cccc([C@@H]3CCN(Cc4nc5ccc(C(=O)O)cc5n4Cc4cncs4)[C@@H]4C[C@@H]43)n2)c(F)c1 (single isomer, unassigned) [Compound 5, 2-((5-(6-((4-Cyano-2-fluorobenzyl)oxy)pyridin-2-yl)-2-azabicyclo[4.1.0]heptan-2-yl)methyl)-1-(thiazol-5-ylmethyl)-1H-benzo[d]imidazole-6-carboxylic Acid] | 5 to 50 | 418 ± 49.6 | 1.31
N#Cc1ccc(COc2cccc([C@H]3CCN(Cc4nc5ccc(C(=O)O)cc5n4Cc4cncs4)[C@H]4C[C@@H]34)n2)c(F)c1 (single isomer, unassigned) [Compound 14, 2-((5-(6-((4-Cyano-2-fluorobenzyl)oxy)pyridin-2-yl)-2-azabicyclo[4.1.0]heptan-2-yl)methyl)-1-(thiazol-5-ylmethyl)-1H-benzo[d]imidazole-6-carboxylic Acid] | 5 to 50 | 66.8 ± 7.06 | 0.645
N#Cc1ccc(COc2cccc([C@@H]3CCN(Cc4nc5ccc(C(=O)O)cc5n4Cc4cncs4)[C@H]4C[C@@H]34)n2)c(F)c1 (single isomer, unassigned) [Compound 15, 2-((5-(6-((4-Cyano-2-fluorobenzyl)oxy)pyridin-2-yl)-2-azabicyclo[4.1.0]heptan-2-yl)methyl)-1-(thiazol-5-ylmethyl)-1H-benzo[d]imidazole-6-carboxylic Acid] | 5 to 50 | 71.7 ± 16.1 | 0.597
CC1(c2ccc(C#N)cc2F)Oc2cccc(C3CCN(Cc4nc5ccc(C(=O)O)cc5n4Cc4cncs4)CC3)c2O1 (centres unmarked) [Compound 18] | < 5 | 84.9 ± 32.2 | 0.89
N#Cc1ccc(COc2ccnc(N3CCN(Cc4nc5ccc(C(=O)O)cc5n4Cc4cncs4)[C@@H]4C[C@@H]43)n2)c(F)c1 [Compound 20, 2-((5-(4-((4-Cyano-2-fluorobenzyl)oxy)pyrimidin-2-yl)-2,5-diazabicyclo[4.1.0]heptan-2-yl)methyl)-1-(thiazol-5-ylmethyl)-1H-benzo[d]imidazole-6-carboxylic Acid] | 5 to 50 | 22.9 ± 30 | 0.578

More lines, now with the values ahead:

EC50 [1] [nM] | AUC [2] [ng·h/mL] | half-life [2] [h] | SMILES
< 5 | 118 ± 10 | 1.19 | N#Cc1ccc(COc2cccc(N3CCN(Cc4nc5ccc(C(=O)O)cc5n4C[C@@H]4CCO4)[C@@H]4C[C@@H]43)n2)c(F)c1 (single isomer, unassigned) [Compound 43]
< 5 | 44.2 ± 8.62 | 2.78 | CC1(c2ccc(C#N)cc2F)Oc2cccc(N3CCN(Cc4nc5ccc(C(=O)O)cc5n4CC4(C#N)CC4)C4CC43)c2O1 (centres unmarked) [Compound 40, 2-((5-(2-(4-Cyano-2-fluorophenyl)-2-methylbenzo[d][1,3]dioxol-4-yl)-2,5-diazabicyclo[4.1.0]heptan-2-yl)methyl)-1-((1-cyanocyclopropyl)methyl)-1H-benzo[d]imidazole-6-carboxylic Acid]
< 5 | 9.48 |  | CCn1nncc1Cn1c(CN2CCN(c3cccc(OCc4ccc(C#N)cc4F)n3)[C@H]3C[C@H]32)nc2ccc(C(=O)O)cc21 [Compound 45, 2-((5-(6-((4-Cyano-2-fluorobenzyl)oxy)pyridin-2-yl)-2,5-diazabicyclo[4.1.0]heptan-2-yl)methyl)-1-((1-ethyl-1H-1,2,3-triazol-5-yl)methyl)-1H-benzo[d]imidazole-6-carboxylic Acid]
